In patent US6623730B1, “Therapeutic uses of polymers and oligomers comprising gamma-hydroxybutyrate” (Tepha, Inc., priority 1999, dated 2003):

Legend:
[1] = cited from earlier work
[2] = Digestibility of GHB oligomers in normal rats: serum GHB after gavage (GC-MS); details: for time for serum GHB to decrease to baseline values / be absorbed and cleared from the circulation: after gavage with GHB monomer
sleep = details: rat, large dose; cited from earlier work
[3] = male, Sprague-Dawley, rat, serum, oral, 50 mg/kg

Compound	time of peak plasma concentration ([1]; after oral administration)	half-life of GHB ([1]; in vivo)	concentration at 0.5 h [2, 3]	concentration at 1 h [2, 3]	concentration at 2 h [2, 3]	concentration at 4 h [2, 3]	GHB Monomer [GHB] concentration of GHB in serum ([2]; rat serum, 0.5 hr after gavage with 50 mg/kg sodium GHB monomer in TWEEN, 50 mg/kg)	time for serum GHB to decrease to baseline values / be absorbed and cleared from the circulation ([2]; rat, listed as GHB monomer)	time for serum GHB to decrease to baseline values / be absorbed and cleared from the circulation ([2]; rat, listed as monomer)	sleep duration (sleep)
O=C(O)CCCO [GHB Monomer, Gamma-hydroxybutyrate]	20 to 60 min	35 min	182 ± 158 µM	23.2 ± 2.05 µM	12.8 ± 2.62 µM	14.9 ± 3.31 µM	182 ± 158 µM	≤ 2 h	1 to 2 h	
CCOC(=O)CCCOC(C)=O [ethyl 4-acetoxybutanoate]										four
